Tests used:
Rho kinase 2 = Rho kinase 2 (Homo sapiens, UniProt O75116); test: In vitro Rho kinase inhibitory activity assay (ADP-Glo kit, Myelin Basic Protein substrate); assay type: biochemical; conditions: 10 μM ATP, 25° C., read-out: ROCK2 inhibitory activity (Ki, range of activity)
In short: (§1)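 ADP-Glo luminescence read-out. Enzyme (ROCK1 or ROCK2) + compound 30 min, then 10 μM ATP final, 1 h, 25 °C; 2.5 μM MBP peptide substrate, Tris pH7.5/MgCl2/BSA/DTT buffer, 1% DMSO. IC50 from variable-slope fit (0–100% fixed); Ki via Cheng-Prusoff.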

Rho kinase 1 = Rho kinase 1 (Homo sapiens, UniProt Q13464); test: as above; assay type: biochemical; conditions: 10 μM ATP, 25° C., read-out: ROCK1 inhibitory activity (Ki, range of activity)
In short: as §1

Rho kinase 1, sequence (Q13464 whole entry): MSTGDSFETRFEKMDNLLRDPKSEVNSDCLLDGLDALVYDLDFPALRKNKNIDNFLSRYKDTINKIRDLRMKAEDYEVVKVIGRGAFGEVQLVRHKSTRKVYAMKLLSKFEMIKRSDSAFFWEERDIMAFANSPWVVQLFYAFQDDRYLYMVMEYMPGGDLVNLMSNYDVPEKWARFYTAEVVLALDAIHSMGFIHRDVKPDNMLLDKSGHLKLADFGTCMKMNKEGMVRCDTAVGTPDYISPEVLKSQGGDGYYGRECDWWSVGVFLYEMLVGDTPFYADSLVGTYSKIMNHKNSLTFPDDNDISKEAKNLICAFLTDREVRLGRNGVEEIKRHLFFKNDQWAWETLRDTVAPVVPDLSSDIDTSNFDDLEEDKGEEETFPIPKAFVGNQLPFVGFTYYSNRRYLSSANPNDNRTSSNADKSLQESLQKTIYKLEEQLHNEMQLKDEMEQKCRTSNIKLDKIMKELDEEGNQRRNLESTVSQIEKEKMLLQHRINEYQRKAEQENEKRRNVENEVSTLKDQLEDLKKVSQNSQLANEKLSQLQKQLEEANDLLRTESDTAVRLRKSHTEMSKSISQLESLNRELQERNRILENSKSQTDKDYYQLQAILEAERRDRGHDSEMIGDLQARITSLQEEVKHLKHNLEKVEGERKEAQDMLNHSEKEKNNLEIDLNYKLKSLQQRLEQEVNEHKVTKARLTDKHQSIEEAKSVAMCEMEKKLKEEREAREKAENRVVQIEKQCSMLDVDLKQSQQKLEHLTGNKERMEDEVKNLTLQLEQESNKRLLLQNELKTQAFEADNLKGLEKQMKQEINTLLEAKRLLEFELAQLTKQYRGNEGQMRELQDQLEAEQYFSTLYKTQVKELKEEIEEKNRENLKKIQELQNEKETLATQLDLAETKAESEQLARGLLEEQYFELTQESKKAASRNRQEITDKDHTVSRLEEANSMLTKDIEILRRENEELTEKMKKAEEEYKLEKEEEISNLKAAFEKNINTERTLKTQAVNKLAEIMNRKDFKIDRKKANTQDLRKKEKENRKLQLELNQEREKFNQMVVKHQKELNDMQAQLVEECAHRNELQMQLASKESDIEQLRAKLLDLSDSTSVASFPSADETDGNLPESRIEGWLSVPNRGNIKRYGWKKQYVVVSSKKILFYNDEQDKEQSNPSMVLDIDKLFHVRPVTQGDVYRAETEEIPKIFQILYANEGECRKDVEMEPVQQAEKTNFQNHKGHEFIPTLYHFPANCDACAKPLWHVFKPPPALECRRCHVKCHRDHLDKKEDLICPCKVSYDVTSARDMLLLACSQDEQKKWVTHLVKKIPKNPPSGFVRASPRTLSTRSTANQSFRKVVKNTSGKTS
Rho kinase 2, sequence (O75116 whole entry): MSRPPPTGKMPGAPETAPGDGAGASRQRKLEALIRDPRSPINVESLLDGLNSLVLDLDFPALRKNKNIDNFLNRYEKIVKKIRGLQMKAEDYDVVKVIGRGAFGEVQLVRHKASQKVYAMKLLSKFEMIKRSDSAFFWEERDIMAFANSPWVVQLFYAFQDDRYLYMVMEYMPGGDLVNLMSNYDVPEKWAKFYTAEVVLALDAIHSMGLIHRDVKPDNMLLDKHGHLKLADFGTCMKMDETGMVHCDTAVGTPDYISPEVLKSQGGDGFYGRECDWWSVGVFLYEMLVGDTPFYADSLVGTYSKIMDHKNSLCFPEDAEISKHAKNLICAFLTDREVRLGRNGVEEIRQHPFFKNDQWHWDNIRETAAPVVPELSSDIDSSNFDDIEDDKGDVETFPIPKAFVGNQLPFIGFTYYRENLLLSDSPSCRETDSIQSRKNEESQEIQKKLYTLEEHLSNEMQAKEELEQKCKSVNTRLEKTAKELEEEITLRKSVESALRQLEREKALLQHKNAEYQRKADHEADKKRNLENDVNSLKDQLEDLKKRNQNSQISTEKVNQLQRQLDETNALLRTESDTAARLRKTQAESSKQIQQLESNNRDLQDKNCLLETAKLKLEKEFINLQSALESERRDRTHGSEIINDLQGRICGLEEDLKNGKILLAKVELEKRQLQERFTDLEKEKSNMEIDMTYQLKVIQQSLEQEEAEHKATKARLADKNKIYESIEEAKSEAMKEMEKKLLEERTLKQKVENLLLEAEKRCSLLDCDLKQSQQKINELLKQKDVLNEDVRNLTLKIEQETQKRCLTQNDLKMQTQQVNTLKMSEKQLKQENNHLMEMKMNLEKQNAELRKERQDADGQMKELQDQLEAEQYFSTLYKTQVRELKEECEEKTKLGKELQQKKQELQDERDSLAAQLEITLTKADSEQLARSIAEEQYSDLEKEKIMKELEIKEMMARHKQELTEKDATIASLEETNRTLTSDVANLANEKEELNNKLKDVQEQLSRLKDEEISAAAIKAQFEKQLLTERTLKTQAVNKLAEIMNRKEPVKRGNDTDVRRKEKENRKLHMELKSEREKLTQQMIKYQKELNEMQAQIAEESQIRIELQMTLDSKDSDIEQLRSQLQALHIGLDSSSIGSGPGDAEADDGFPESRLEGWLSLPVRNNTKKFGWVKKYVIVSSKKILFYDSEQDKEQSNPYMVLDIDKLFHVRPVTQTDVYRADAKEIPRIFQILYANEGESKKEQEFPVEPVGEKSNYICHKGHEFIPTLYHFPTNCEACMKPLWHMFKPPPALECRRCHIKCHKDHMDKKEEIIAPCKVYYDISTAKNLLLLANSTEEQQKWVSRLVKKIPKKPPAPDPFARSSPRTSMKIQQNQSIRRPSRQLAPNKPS

Row | SMILES | Ki (Rho kinase 2) | Ki (Rho kinase 1)
1 | CC1=C(C(=O)Nc2ccc3cnccc3c2)C(c2ccc(C)c(F)c2F)n2nc(CN(C)C)cc2N1 (single isomer, unassigned) [Example 121b, 7-(2,3-difluoro-4-methylphenyl)-2-((dimethylamino)methyl)-N-(isoquinolin-6-yl)-5-methyl-4,7-dihydropyrazolo[1,5-a]pyrimidine-6-carboxamide] | < 50 nM | < 50 nM
2 | CC1=C(C(=O)Nc2ccc3cnccc3c2)C(c2ccc(C(F)(F)F)c(F)c2F)n2nc(CN(C)C)cc2N1 (single isomer, unassigned) [Example 122a, 7-(2,3-difluoro-4-(trifluoromethyl)phenyl)-2-((dimethylamino)methyl)-N-(isoquinolin-6-yl)-5-methyl-4,7-dihydropyrazolo[1,5-a]pyrimidine-6-carboxamide] | > 500 nM | > 500 nM
3 | CC1=C(C(=O)Nc2ccc3cnccc3c2)C(c2ccc(C(F)(F)F)c(F)c2F)n2nc(CN(C)C)cc2N1 (single isomer, unassigned) [Example 122b, 7-(2,3-difluoro-4-(trifluoromethyl)phenyl)-2-((dimethylamino)methyl)-N-(isoquinolin-6-yl)-5-methyl-4,7-dihydropyrazolo[1,5-a]pyrimidine-6-carboxamide] | < 50 nM | < 50 nM
4 | CC1=C(C(=O)Nc2ccc3cnccc3c2)C(C2Cc3ccccc3C2)n2nc(CN(C)C)cc2N1 (single isomer, unassigned) [Example 124a, 7-(2,3-dihydro-1H-inden-2-yl)-2-((dimethylamino)methyl)-N-(isoquinolin-6-yl)-5-methyl-4,7-dihydropyrazolo[1,5-a]pyrimidine-6-carboxamide] | > 500 nM | > 500 nM
5 | CC1=C(C(=O)Nc2ccc3cnccc3c2)C(C2Cc3ccccc3C2)n2nc(CN(C)C)cc2N1 (single isomer, unassigned) [Example 124b, 7-(2,3-dihydro-1H-inden-2-yl)-2-((dimethylamino)methyl)-N-(isoquinolin-6-yl)-5-methyl-4,7-dihydropyrazolo[1,5-a]pyrimidine-6-carboxamide] | < 50 nM | < 50 nM
6 | CC1=C(C(=O)Nc2ccc3cnccc3c2)C(c2ccc(C(F)(F)F)c(F)c2)n2nc(C(=O)NCCN3CCCCC3)nc2N1 (single isomer, unassigned) [Example 129a, 7-(3-fluoro-4-(trifluoromethyl)phenyl)-N6-(isoquinolin-6-yl)-5-methyl-N2-(2-(piperidin-1-yl)ethyl)-4,7-dihydro-[1,2,4]triazolo[1,5-a]pyrimidine-2,6-dicarboxamide] | < 50 nM | < 50 nM
7 | CC1=C(C(=O)Nc2ccc3cnccc3c2)C(c2ccc(C(F)(F)F)c(F)c2)n2nc(NC(=O)c3ccc(CN(C)C)cc3)cc2N1 (single isomer, unassigned) [Example 137A, 2-(4-((Dimethylamino)methyl)benzamido)-7-(3-fluoro-4-(trifluoromethyl)-phenyl)-N-(isoquinolin-6-yl)-5-methyl-4,7-dihydropyrazolo[1,5-a]pyrimidine-6-carboxamide] | > 500 nM | > 500 nM
8 | CC1=C(C(=O)Nc2ccc3cnccc3c2)C(c2ccc(C(F)(F)F)c(F)c2)n2nc(NC(=O)c3ccc(CN(C)C)cc3)cc2N1 (single isomer, unassigned) [Example 137B, 2-(4-((Dimethylamino)methyl)benzamido)-7-(3-fluoro-4-(trifluoromethyl)-phenyl)-N-(isoquinolin-6-yl)-5-methyl-4,7-dihydropyrazolo[1,5-a]pyrimidine-6-carboxamide] | < 50 nM | < 50 nM
9 | CC1=C(C(=O)Nc2ccc3cnccc3c2)C(c2ccc(C(F)(F)F)c(F)c2)n2nc(CNC(=O)CCN3CCCCC3)cc2N1 (single isomer, unassigned) [Example 138A, 7-(3-Fluoro-4-(trifluoromethyl)phenyl)-N-(isoquinolin-6-yl)-5-methyl-2-((3-(piperidin-1-yl)propanamido)methyl)-4,7-dihydropyrazolo[1,5-a]pyrimidine-6-carboxamide] | < 50 nM | < 50 nM
10 | CC1=C(C(=O)Nc2ccc3cnccc3c2)C(c2ccc(C(F)(F)F)c(F)c2)n2nc(CNC(=O)CCN3CCCCC3)cc2N1 (single isomer, unassigned) [Example 138B, 7-(3-Fluoro-4-(trifluoromethyl)phenyl)-N-(isoquinolin-6-yl)-5-methyl-2-((3-(piperidin-1-yl)propanamido)methyl)-4,7-dihydropyrazolo[1,5-a]pyrimidine-6-carboxamide] | > 500 nM | > 500 nM
11 | CCOC(=O)c1cc2n(n1)C(c1ccc(C(F)(F)F)cc1)C(C(=O)Nc1ccc3cnccc3c1)=C(C)N2 (centres unmarked) [Example 1, ethyl 6-(isoquinolin-6-ylcarbamoyl)-5-methyl-7-(4-(trifluoromethyl)phenyl)-4,7-dihydropyrazolo[1,5-a]pyrimidine-2-carboxylate] | < 50 nM | < 50 nM
12 | CCOC(=O)c1cc2n(n1)C(c1ccc(C(F)(F)F)cc1)C(C(=O)Nc1ccc3[nH]ncc3c1)=C(C)N2 (centres unmarked) [Example 2, ethyl 6-((1H-indazol-5-yl)carbamoyl)-5-methyl-7-(4-(trifluoromethyl)phenyl)-4,7-dihydropyrazolo[1,5-a]pyrimidine-2-carboxylate] | < 50 nM | < 50 nM
13 | CCOC(=O)c1cc2n(n1)C(c1ccc(C)cc1)C(C(=O)Nc1ccc3[nH]ncc3c1)=C(C)N2 (centres unmarked) [Example 3, ethyl 6-((1H-indazol-5-yl)carbamoyl)-5-methyl-7-(p-tolyl)-4,7-dihydropyrazolo[1,5-a]pyrimidine-2-carboxylate] | < 50 nM | < 50 nM
14 | CCOC(=O)c1cc2n(n1)C(c1ccc(Cl)nc1)C(C(=O)Nc1ccc3[nH]ncc3c1)=C(C)N2 (centres unmarked) [Example 5, ethyl 6-((1H-indazol-5-yl)carbamoyl)-7-(6-chloropyridin-3-yl)-5-methyl-4,7-dihydropyrazolo[1,5-a]pyrimidine-2-carboxylate] | < 50 nM | < 50 nM
15 | CCOC(=O)c1cc2n(n1)C(c1cccc(OC)c1)C(C(=O)Nc1ccc3[nH]ncc3c1)=C(C)N2 (centres unmarked) [Example 6, ethyl 6-((1H-indazol-5-yl)carbamoyl)-7-(3-methoxyphenyl)-5-methyl-4,7-dihydropyrazolo[1,5-a]pyrimidine-2-carboxylate] | 50 to 500 nM | 50 to 500 nM
16 | CCOC(=O)c1cc2n(n1)C(c1nc3ccccc3s1)C(C(=O)Nc1ccc3cnccc3c1)=C(C)N2 (centres unmarked) [Example 8, ethyl 7-(benzo[d]thiazol-2-yl)-6-(isoquinolin-6-ylcarbamoyl)-5-methyl-4,7-dihydropyrazolo[1,5-a]pyrimidine-2-carboxylate] | < 50 nM | < 50 nM
17 | CCOC(=O)c1cc2n(n1)C(c1ccc(O)cc1)C(C(=O)Nc1ccc3cnccc3c1)=C(C)N2 (centres unmarked) [Example 9, ethyl 7-(4-hydroxyphenyl)-6-(isoquinolin-6-ylcarbamoyl)-5-methyl-4,7-dihydropyrazolo[1,5-a]pyrimidine-2-carboxylate] | < 50 nM | < 50 nM
18 | CCOC(=O)c1cc2n(n1)C(c1ccc(O)c(F)c1)C(C(=O)Nc1ccc3cnccc3c1)=C(C)N2 (centres unmarked) [Example 10, ethyl 7-(3-fluoro-4-hydroxyphenyl)-6-(isoquinolin-6-ylcarbamoyl)-5-methyl-4,7-dihydropyrazolo[1,5-a]pyrimidine-2-carboxylate] | < 50 nM | < 50 nM
19 | CCOC(=O)c1cc2n(n1)C(C1CCOCC1)C(C(=O)Nc1ccc3[nH]ncc3c1)=C(C)N2 (centres unmarked) [Example 11, ethyl 6-((1H-indazol-5-yl)carbamoyl)-5-methyl-7-(tetrahydro-2H-pyran-4-yl)-4,7-dihydropyrazolo[1,5-a]pyrimidine-2-carboxylate] | 50 to 500 nM | 50 to 500 nM
20 | CCOC(=O)c1cc2n(n1)C(C1CCN(C)CC1)C(C(=O)Nc1ccc3[nH]ncc3c1)=C(C)N2 (centres unmarked) [Example 12, ethyl 6-((1H-indazol-5-yl)carbamoyl)-5-methyl-7-(1-methylpiperidin-4-yl)-4,7-dihydropyrazolo[1,5-a]pyrimidine-2-carboxylate] | > 500 nM | > 500 nM
21 | CCOC(=O)c1cc2n(n1)C(CC(C)C)C(C(=O)Nc1ccc3[nH]ncc3c1)=C(C)N2 (centres unmarked) [Example 13, ethyl 6-((1H-indazol-5-yl)carbamoyl)-7-isobutyl-5-methyl-4,7-dihydropyrazolo[1,5-a]pyrimidine-2-carboxylate] | 50 to 500 nM | 50 to 500 nM
22 | CCOC(=O)c1cc2n(n1)C(C1CCCCC1)C(C(=O)Nc1ccc3[nH]ncc3c1)=C(C)N2 (centres unmarked) [Example 14, ethyl 6-((1H-indazol-5-yl)carbamoyl)-7-cyclohexyl-5-methyl-4,7-dihydropyrazolo[1,5-a]pyrimidine-2-carboxylate] | < 50 nM | 50 to 500 nM
23 | CCOC(=O)c1cc2n(n1)C(c1ccc(C(F)(F)F)c(F)c1)C(C(=O)Nc1ccn3cnnc3c1)=C(C)N2 (centres unmarked) [Example 15, ethyl 6-([1,2,4]triazolo[4,3-a]pyridin-7-ylcarbamoyl)-7-(3-fluoro-4-(trifluoromethyl)phenyl)-5-methyl-4,7-dihydropyrazolo[1,5-a]pyrimidine-2-carboxylate] | > 500 nM | > 500 nM
24 | CCOC(=O)c1nn2c(c1C#N)NC(C)=C(C(=O)Nc1ccc3[nH]ncc3c1)C2c1ccc(C(F)(F)F)cc1 (centres unmarked) [Example 16, ethyl 6-((1H-indazol-5-yl)carbamoyl)-3-cyano-5-methyl-7-(4-(trifluoromethyl)phenyl)-4,7-dihydropyrazolo[1,5-a]pyrimidine-2-carboxylate] | < 50 nM | < 50 nM
25 | CCOC(=O)c1cnn2c1NC(C)=C(C(=O)Nc1ccc3[nH]ncc3c1)C2c1ccc(F)cc1 (centres unmarked) [Example 17, ethyl 6-((1H-indazol-5-yl)carbamoyl)-7-(4-fluorophenyl)-5-methyl-4,7-dihydropyrazolo[1,5-a]pyrimidine-3-carboxylate] | > 500 nM | > 500 nM

— patent US10584128B2, “Bicyclic dihydropyrimidine-carboxamide derivatives as Rho-Kinase inhibitors” (CHIESI FARMACEUTICI S.p.A., priority 2016, dated 2020)
